According to PubChem BioAssay AID248 (DTP/NCI, 2004):
“And” between values parts separate entries of the source, which are not always exact repeats. Equal values may be shown once. Toxic doses and inconclusive results are not listed. No stated cut-off is given here; in the data, active means T/C of 150% or more; inactive means T/C below 125%.

Test system: L1210 leukemia ip in BDF1 mice, survival T/C
Assay: NCI In Vivo Anticancer Drug Screen. Data for tumor model L1210 Leukemia (intraperitoneal) in B6D2F1 (BDF1) mice
Conditions: endpoint: mean survival time, higher = longer survival
Outline: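 In this screen, tumor-bearing mice given compound are compared to those given vehicle, and their survival values are reported as a treated-to-control quotient.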

[1] = dose: 100.0 mg/kg/injection, schedule: Q04DX002 (ip), vehicle: saline with Tween-80
[2] = dose: 100.0 mg/kg/injection, schedule: Q04DX003 (ip), vehicle: saline with Tween-80
[3] = dose: 200.0 mg/kg/injection, schedule: Q04DX002 (ip), vehicle: saline with Tween-80
[4] = dose: 200.0 mg/kg/injection, schedule: Q04DX003 (ip), vehicle: saline with Tween-80
[5] = dose: 400.0 mg/kg/injection, schedule: Q04DX003 (ip), vehicle: saline with Tween-80
[6] = dose: 12.5 mg/kg/injection, schedule: Q01DX009 (ip), vehicle: saline
[7] = dose: 25.0 mg/kg/injection, schedule: Q01DX009 (ip), vehicle: saline
[8] = dose: 50.0 mg/kg/injection, schedule: Q01DX009 (ip), vehicle: saline
[9] = dose: 100.0 mg/kg/injection, schedule: Q01DX009 (ip), vehicle: saline with Tween-80
[10] = dose: 200.0 mg/kg/injection, schedule: Q01DX009 (ip), vehicle: saline with Tween-80
[11] = dose: 400.0 mg/kg/injection, schedule: Q01DX009 (ip), vehicle: saline with Tween-80
[12] = dose: 100.0 mg/kg/injection, schedule: Q04DX003 (ip), vehicle: saline
[13] = dose: 100.0 mg/kg/injection, schedule: Q01DX001 (ip), vehicle: saline
[14] = dose: 200.0 mg/kg/injection, schedule: Q01DX001 (ip), vehicle: saline
[15] = dose: 100.0 mg/kg/injection, schedule: Q01DX001 (ip), vehicle: other
[16] = dose: 200.0 mg/kg/injection, schedule: Q01DX001 (ip), vehicle: other
[17] = dose: 400.0 mg/kg/injection, schedule: Q01DX001 (ip), vehicle: other

Measured: T/C

CCCCC(=O)N1CCCC1
inactive: dose: 100.0 mg/kg/injection, schedule: Q04DX002 (ip), vehicle: saline 96 % of control | dose: 200.0 mg/kg/injection, schedule: Q04DX002 (ip), vehicle: saline 92 % of control | dose: 400.0 mg/kg/injection, schedule: Q04DX002 (ip), vehicle: saline 111 % of control

c1ccc2c(c1)Cc1cc(NC3=NCCO3)ccc1-2
inactive: dose: 50.0 mg/kg/injection, schedule: Q04DX002 (ip), vehicle: saline with Tween-80 93 % of control | [1] 100 % of control | [2] 101 % of control | [3] 104 % of control | [4] 89 % of control | dose: 400.0 mg/kg/injection, schedule: Q04DX002 (ip), vehicle: saline with Tween-80 93 % of control | [5] 87 % of control

CC1(C)N=C(N)N=C(N)N1c1ccc(OCC(=O)N2CCOCC2)cc1
inactive: [6] 106 % of control | [7] 102 % of control | [8] 95 % of control | dose: 100.0 mg/kg/injection, schedule: Q01DX009 (ip), vehicle: saline 96 % of control

Cc1ccc(S(=O)(=O)N=N/C=C2/C=CC=CN2O)cc1
inactive: dose: 40.0 mg/kg/injection, schedule: Q01DX009 (ip), vehicle: saline 93 % of control | dose: 60.0 mg/kg/injection, schedule: Q01DX009 (ip), vehicle: saline 96 % of control | dose: 90.0 mg/kg/injection, schedule: Q01DX009 (ip), vehicle: saline 94 % of control | dose: 135.0 mg/kg/injection, schedule: Q01DX009 (ip), vehicle: saline 104 % of control | dose: 175.0 mg/kg/injection, schedule: Q01DX009 (ip), vehicle: saline with Tween-80 111 % of control

O=C1OC(c2cccc(Cl)c2)=N/C1=C\c1cccc([N+](=O)[O-])c1
inactive: dose: 100.0 mg/kg/injection, schedule: Q04DX002 (ip), vehicle: Klucel (hydroxypropylcellulose) (HPC) 103 % of control | dose: 200.0 mg/kg/injection, schedule: Q04DX002 (ip), vehicle: Klucel (hydroxypropylcellulose) (HPC) 100 % of control | dose: 400.0 mg/kg/injection, schedule: Q04DX002 (ip), vehicle: Klucel (hydroxypropylcellulose) (HPC) 103 % of control

COc1ccc(OC)c(CCC(O)CCc2cc(OC)ccc2OC)c1
inactive: [9] 99 % of control | [2] 96 % of control | [10] 90 % of control | [4] 98 % of control | [11] 94 % of control | [5] 94 % of control

O=C(O)C1C[n+]2ccccc2O1 (centres undefined)
inactive: [8] 116 % of control | [12] 97 % of control | dose: 200.0 mg/kg/injection, schedule: Q04DX003 (ip), vehicle: saline 103 % of control

Cc1csc2[nH]c(=O)[nH]c(=O)c12
inactive: dose: 100.0 mg/kg/injection, schedule: Q01DX009 (ip), vehicle: water 104 % of control | dose: 100.0 mg/kg/injection, schedule: Q04DX003 (ip), vehicle: water 112 % of control | dose: 200.0 mg/kg/injection, schedule: Q04DX003 (ip), vehicle: water 115 % of control | dose: 400.0 mg/kg/injection, schedule: Q01DX009 (ip), vehicle: water 86 % of control | dose: 400.0 mg/kg/injection, schedule: Q04DX003 (ip), vehicle: water 118 % of control

Cc1ccc(NC(=O)NCCO)cc1C
inactive: [1] 95 % of control | [3] 95 % of control

CC(=O)c1ccccc1OC(F)(F)C(F)Cl (centres undefined)
inactive: [13] 101 % of control | [14] 103 % of control | dose: 400.0 mg/kg/injection, schedule: Q01DX001 (ip), vehicle: saline 103 % of control

CCOC(=O)CCSC(C)(C)C(=O)OCC
inactive: dose: 100.0 mg/kg/injection, schedule: Q01DX009 (ip), vehicle: Klucel (hydroxypropylcellulose) (HPC) 97 % of control | dose: 200.0 mg/kg/injection, schedule: Q01DX009 (ip), vehicle: Klucel (hydroxypropylcellulose) (HPC) 101 % of control | dose: 400.0 mg/kg/injection, schedule: Q01DX009 (ip), vehicle: Klucel (hydroxypropylcellulose) (HPC) 100 % of control

C=C(Br)CNC(=O)c1ccccc1
inactive: dose: 12.5 mg/kg/injection, schedule: Q01DX009 (ip), vehicle: Klucel (hydroxypropylcellulose) (HPC) 97 % of control | dose: 25.0 mg/kg/injection, schedule: Q01DX009 (ip), vehicle: Klucel (hydroxypropylcellulose) (HPC) 108 % of control | dose: 50.0 mg/kg/injection, schedule: Q01DX009 (ip), vehicle: Klucel (hydroxypropylcellulose) (HPC) 90 % of control | dose: 100.0 mg/kg/injection, schedule: Q01DX001 (ip), vehicle: Klucel (hydroxypropylcellulose) (HPC) 101 % of control | dose: 200.0 mg/kg/injection, schedule: Q01DX001 (ip), vehicle: Klucel (hydroxypropylcellulose) (HPC) 106 % of control

CC(C)(C)N(CCO)CC1C(c2ccccc2)C1c1ccccc1 (centres undefined)
inactive: dose: 12.5 mg/kg/injection, schedule: Q04DX002 (ip), vehicle: Klucel (hydroxypropylcellulose) (HPC) 103 % of control | dose: 25.0 mg/kg/injection, schedule: Q04DX002 (ip), vehicle: Klucel (hydroxypropylcellulose) (HPC) 103 % of control | dose: 50.0 mg/kg/injection, schedule: Q04DX002 (ip), vehicle: Klucel (hydroxypropylcellulose) (HPC) 97 % of control

CC(C)(CO)C(O)C(=O)NN (centres undefined)
inactive: [13] 91 % of control | [14] 94 % of control

CCSc1ccc2c(c1)N(CCCN1CCN(C)CC1)c1ccccc1S2
inactive: dose: 3.12 mg/kg/injection, schedule: Q01DX009 (ip), vehicle: saline 110 % of control | dose: 6.25 mg/kg/injection, schedule: Q01DX009 (ip), vehicle: saline 107 % of control | dose: 6.25 mg/kg/injection, schedule: Q04DX003 (ip), vehicle: saline 93 % of control | [6] 100 % of control | dose: 12.5 mg/kg/injection, schedule: Q04DX003 (ip), vehicle: saline 100 % of control and 101 % of control | [7] 113 % of control | dose: 25.0 mg/kg/injection, schedule: Q04DX003 (ip), vehicle: saline 96 % of control and 97 % of control and 103 % of control | [8] 98 % of control | dose: 50.0 mg/kg/injection, schedule: Q04DX003 (ip), vehicle: saline 100 % of control and 110 % of control | [12] 114 % of control and 104 % of control and 110 % of control

O=C(C=C(C(F)(F)Cl)C(F)(F)Cl)c1cccs1
inactive: dose: 5.0 mg/kg/injection, schedule: Q01DX009 (ip), vehicle: saline 95 % of control | dose: 10.0 mg/kg/injection, schedule: Q01DX009 (ip), vehicle: saline 88 % of control

CC(C)C1(NC(=O)C2C=C3c4cccc5[nH]cc(c45)CC3N(C)C2)OC2(O)C3CCCN3C(=O)C(Cc3ccccc3)N2C1=O (centres undefined)
inactive: dose: 50.0 mg/kg/injection, schedule: Q01DX001 (ip), vehicle: carboxymethylcellulose (CMC) 93 % of control | dose: 50.0 mg/kg/injection, schedule: Q01DX001 (ip), vehicle: other 93 % of control | dose: 100.0 mg/kg/injection, schedule: Q01DX001 (ip), vehicle: carboxymethylcellulose (CMC) 98 % of control | [15] 88 % of control | [13] 102 % of control | [16] 93 % of control | [14] 96 % of control and 89 % of control | [17] 96 % of control

c1cc2c3c(c1)-c1nc4ccccc4cc1CN3CCC2
inactive: [9] 94 % of control | [10] 105 % of control | [11] 96 % of control

Cc1ccc(C(C)C)c2cc(C=O)c(O)cc12
inactive: dose: 100.0 mg/kg/injection, schedule: Q01DX001 (sc), vehicle: olive oil, sesame oil, peanut oil 95 % of control | dose: 200.0 mg/kg/injection, schedule: Q01DX001 (sc), vehicle: olive oil, sesame oil, peanut oil 109 % of control | dose: 400.0 mg/kg/injection, schedule: Q01DX001 (sc), vehicle: olive oil, sesame oil, peanut oil 101 % of control

CC(C)C(=O)Nc1cc(Cl)ccc1Cl
inactive: [15] 94 % of control | [16] 97 % of control | [17] 92 % of control

NC(=NCc1ccccc1)c1ccc(NC(=O)c2ccc(C(=O)Nc3ccc(C(N)=NCc4ccccc4)cc3)cc2)cc1
inactive: dose: 7.0 mg/kg/injection, schedule: Q01DX Z (ip), vehicle: water 113 % of control
